{"source": "paper PMC8364112", "about": "(Proceedings of the National Academy of Sciences of the …, 2021)", "origin": "cited, not measured here", "tested_on": "PTH2R", "details": "for mode of action on PTH2R: potent / mild / weak, ref [4], [16]", "data": [{"molecule": "PTH-related peptide [PTHrP]", "values": [{"measurement": "mode of action on PTH2R", "setting": "[13]", "result": "weak"}, {"measurement": "action on PTH2R", "setting": "ref [3], [4], [13]", "result": "weak action on PTH2R"}]}, {"molecule": "parathyroid hormone (SVSEIQLMHNLGKHLNSMERVEWLRKKLQDVHNF; Parathyroid hormone; UniProt P01270 32-65, looked up, fragment) [PTH]", "values": [{"measurement": "mode of action on PTH2R", "setting": "[13]", "result": "mild"}]}, {"molecule": "substitution of Ile5^P of PTH with a histidine: PTH with Ile5 substituted with a histidine (peptide, UniProt P01270 32-115, looked up, variant I5H, Parathyroid hormone) Parathyroid hormone: SVSEHQLMHNLGKHLNSMERVEWLRKKLQDVHNFVALGAPLAPRDAGSQRPRKKEDNVLVESHEKSLGEADKADVNVLTKAKSQ", "values": [{"measurement": "effect of position 5 substitution on potency on PTH2R", "setting": "ref [27]", "result": "decreases the peptide potency"}]}]}
